In the first test the target is Tyrosine-protein kinase BTK (Homo sapiens, UniProt Q06187). The test is described as follows: Microfluidic Off-Chip Mobility Shift Assay Protocol for Potency Assessment Against BTK Enzyme: Briefly, 2.5× stocks of full-length human BTK (08-080) from CarnaBio USA, Inc., Natick, Mass., 1.6×ATP and appropriate kinKDR peptide substrate (FITC-AHA-[…]-NH2; developed in-house) were prepared in kinase reaction buffer consisting of 25 mM MgCl2, 0.015% Brij-35 (30%), 100 mM HEPES, pH 7.5, and 10 mM DTT. 5 uL of enzyme buffer and 7.5 uL of ATP/kinKDR peptide substrate mix were added to Matrix (#115304) 384-well, sterile, polypropylene plates (Thermo Fisher Scientific, Hudson, N.H.) with 125 nL of serially diluted compounds prepared in 100% DMSO, and incubated for 90 min. at 27° C. Following the incubation period, reactions were stopped by adding 60 uL stop buffer consisting of 100 mM HEPES, pH 7.5, 0.015% Brij-35 (30%), 0.277% Coating Reagent #3 (Caliper Life Sciences, Mountain View, Calif.), 5% DMSO. Stopped reactions were monitored at −2 PSI, −3000 V/−700 V in a LabChip 3000 plate reader from Caliper Life Sciences, a PerkinElmer Company (Hopkinton, Mass.), and the activity was measured by off-chip mobility shift assay measuring the charge/mass difference between substrate and product resulting from peptide phosphorilation. IC50 and efficacy were determined by plotting log [Inhibitor] vs. % Activity in GeneData Screener (Basel. Switzerland).
Sequence of Tyrosine-protein kinase BTK (Homo sapiens, UniProt Q06187) (Q06187 whole entry): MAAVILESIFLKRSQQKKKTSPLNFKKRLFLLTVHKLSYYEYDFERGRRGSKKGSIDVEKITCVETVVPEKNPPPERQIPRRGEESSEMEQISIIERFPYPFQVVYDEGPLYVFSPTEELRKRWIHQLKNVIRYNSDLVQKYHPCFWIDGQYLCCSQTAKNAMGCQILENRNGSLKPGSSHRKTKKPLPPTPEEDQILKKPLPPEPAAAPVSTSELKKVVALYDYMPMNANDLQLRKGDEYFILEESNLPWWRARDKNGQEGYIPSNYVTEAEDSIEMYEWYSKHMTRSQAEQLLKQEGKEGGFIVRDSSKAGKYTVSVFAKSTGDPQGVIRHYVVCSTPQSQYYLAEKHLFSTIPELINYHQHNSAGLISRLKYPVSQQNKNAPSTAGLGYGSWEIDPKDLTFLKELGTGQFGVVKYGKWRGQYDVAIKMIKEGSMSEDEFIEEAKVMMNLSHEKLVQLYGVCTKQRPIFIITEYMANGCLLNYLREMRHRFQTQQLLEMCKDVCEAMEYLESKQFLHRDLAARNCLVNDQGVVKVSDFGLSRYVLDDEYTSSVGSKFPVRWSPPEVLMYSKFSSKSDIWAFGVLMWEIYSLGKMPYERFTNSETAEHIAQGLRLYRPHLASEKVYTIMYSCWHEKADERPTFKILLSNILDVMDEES
Consider `Cn1cc(-c2nc3c(-c4ccc(CNc5nccc6c5OCCN6C(=O)OC(C)(C)C)c(F)c4)ccnc3[nH]2)cn1`, for which the IC50 (commonly the concentration at which inhibition is half-maximal) was above 5000 nM. On the same count and under the same terms, to `CCn1cc(-c2nc3c(-c4ccc(CNC(=O)c5cc(C(C)(C)C)on5)c(F)c4)ccnc3[nH]2)cn1` belongs below 100 nM; to `CC(C)(C)c1noc(C(=O)NCc2ccc(-c3ccnc4[nH]c(C5=CCNCC5)nc34)cc2F)n1`, below 100 nM; to `CC(C)(C)c1noc(C(=O)NCc2ccc(-c3ccnc4[nH]c([C@@H]5C[C@H]5c5ccccc5)nc34)cc2F)n1`, above 5000 nM.

In the next test the target is Tyrosine-protein kinase BTK (Homo sapiens, UniProt Q06187, C481S). As to the kind of experiment: Microfluidic Off-Chip Mobility Shift Assay Protocol for Potency Assessment Against BTK C481S Enzyme: The protocol below describes a microfluidic, off-chip mobility shift kinase assay to measure inherent potency of compounds against BTK C481S enzyme. The mechanics of the assay platform are described by the vendor (PerkinElmer, Hopkinton, Mass.) on their website at the following URL: http://caliperls.com.Briefly, 2.5× stocks of His-TEV-hsBTK(328-659)(C481S) from the Merck Serono Protein Purification Laboratory in Darmstadt, Germany (PCS, Q27/234), 1.6×ATP and appropriate KinKDR peptide substrate (FITC-AHA-[…]-NH2; Tufts University Core Facility custom synthesis) were prepared in kinase reaction buffer consisting of 25 mM MgCl2, 0.015% Brij-35 (30%), 100 mM HEPES, pH 7.5, and 10 mM DTT.5 uL of enzyme buffer and 7.5 uL of ATP/KinKDR peptide substrate mix were added to Matrix (#4315) 384-well, sterile, flat-bottom polypropylene plates (Thermo Fisher Scientific, Hudson, N.H.) with 125 nL of serially diluted compounds prepared in 100% DMSO, and incubated for 90 min. at 25° C. Following the incubation period, reactions were terminated by adding 65 uL quench buffer consisting of 100 mM HEPES, pH 7.5, 0.015% Brij-35 (30%), 0.277% Coating Reagent #3 (PerkinElmer, Mountain View, Calif.), 5% DMSO. Terminated reactions were monitored at −2 PSI, −3000 V/−700 Volts in a LabChip 3000 plate reader from Caliper Life Sciences, a PerkinElmer Company (Hopkinton, Mass.), and the activity was quantified by laser-induced fluorescence measuring the charge/mass difference between substrate and product resulting from peptide phosphorylation. IC50 and efficacy were determined by plotting log [Inhibitor] vs. % Activity in GeneData Screener (Basel, Switzerland).
Sequence of Tyrosine-protein kinase BTK (Homo sapiens, UniProt Q06187, C481S) (Q06187 2-659 C481S limits assumed): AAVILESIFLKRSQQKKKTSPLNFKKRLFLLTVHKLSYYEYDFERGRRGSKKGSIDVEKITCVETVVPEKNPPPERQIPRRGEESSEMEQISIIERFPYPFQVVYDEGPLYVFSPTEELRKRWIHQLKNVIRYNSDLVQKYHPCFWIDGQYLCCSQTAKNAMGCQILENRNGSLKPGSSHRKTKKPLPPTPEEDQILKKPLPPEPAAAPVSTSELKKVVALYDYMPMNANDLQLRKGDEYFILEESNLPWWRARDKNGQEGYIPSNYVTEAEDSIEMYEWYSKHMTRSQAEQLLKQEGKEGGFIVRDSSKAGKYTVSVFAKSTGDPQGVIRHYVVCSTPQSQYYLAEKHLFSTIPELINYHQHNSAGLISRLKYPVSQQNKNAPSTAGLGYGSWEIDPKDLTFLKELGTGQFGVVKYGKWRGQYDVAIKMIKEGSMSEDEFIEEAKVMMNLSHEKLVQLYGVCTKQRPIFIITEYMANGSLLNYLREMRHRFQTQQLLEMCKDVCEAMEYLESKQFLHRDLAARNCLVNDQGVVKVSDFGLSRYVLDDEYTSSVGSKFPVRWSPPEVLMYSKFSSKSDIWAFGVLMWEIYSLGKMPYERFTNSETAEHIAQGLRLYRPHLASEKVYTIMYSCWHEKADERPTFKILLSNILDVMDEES
`CC(C)(C)c1nc(C(=O)NCc2ccc(-c3ccnc4[nH]c(-c5cnn(C6COC6)c5)nc34)cc2F)no1`: the IC50 is below 100 nM.

Turning to `Cn1cc(-c2nc3c(-c4cccc(CNC(=O)c5noc(C(C)(C)C)n5)c4)ccnc3[nH]2)cn1`, the IC50 was below 100 nM. Still for that read-out and setting: the same measure for `CC(C)(C)c1nc(C(=O)NCc2ccc(-c3ccnc4[nH]c(-c5cnn(C6CCOCC6)c5)nc34)cc2F)no1`: below 100 nM.

Values taken from ChEMBL document CHEMBL5728678, “Heteroaryl compounds as BTK inhibitors and uses thereof” (2021).
